ChEMBL document CHEMBL1201862, “PubChem BioAssay data set” (2004)
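Five concentrations, 48 hours, 96-well plates. The concentration for 50% growth inhibition is given as GI50.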 The source made the active and inactive calls. Cut-off read from the data, not from the text of the source: active = GI50 up to about 1.1 µM and inactive = higher. *1 amine or outer side, *2 acyl side, *3 side chain or, on linkers, in order; H or OH if unused. Where a SMILES comes first, the peptide text is derived from it. Bridges are numbered along the chain shown (N, C = ends). Roman numbers before positions name the chains, in order. [ ]: non-standard residue; d: D form. Actinocin(1to9) = Cc1c2oc3c(C)ccc(C(=O)[*:2])c3nc-2c(C(=O)[*:1])c(N)c1=O; NMeV = CN[CH](C(=O)O)C(C)C; Sar = CNCC(=O)O

Assays:
Test in all cases: NCI anticancer screen, dose series, 48 h
PC-3 = tested on: PC-3
OVCAR-8 = tested on: OVCAR-8
Malme-3M = tested on: Malme-3M
HL-60 = tested on: HL-60
MDA-N = tested on: MDA-N
SK-MEL-28 = tested on: SK-MEL-28
Hs-578T = tested on: Hs-578T
HCC 2998 = tested on: HCC 2998
SK-OV-3 = tested on: SK-OV-3
BT-549 = tested on: BT-549
OVCAR-5 = tested on: OVCAR-5
NCI-H23 = tested on: NCI-H23
SNB-75 = tested on: SNB-75
RPMI-8226 = tested on: RPMI-8226
UACC-257 = tested on: UACC-257
SF-295 = tested on: SF-295
EKVX = tested on: EKVX
NCI-H460 = tested on: NCI-H460
MOLT-4 = tested on: MOLT-4
HOP-92 = tested on: HOP-92

Cc1[nH]c2c(c1Cc1ccccc1)C1=NC=C(O)NN1C=N2
GI50 (PC-3): 82.2 µM (inactive)
GI50 (OVCAR-8): 51.4 µM (inactive)
GI50 (Malme-3M): > 100 µM (inactive)
GI50 (HL-60): > 100 µM (inactive)
GI50 (MDA-N): > 100 µM (inactive)
GI50 (SK-MEL-28): > 100 µM (inactive)
GI50 (Hs-578T): 67.5 µM (inactive)
GI50 (HCC 2998): 53.8 µM (inactive)
GI50 (SK-OV-3): > 100 µM (inactive)
GI50 (BT-549): 49 µM (inactive)
GI50 (OVCAR-5): > 100 µM (inactive)
GI50 (NCI-H23): 53.7 µM (inactive)
GI50 (SNB-75): 10.3 µM (inactive)
GI50 (RPMI-8226): 51.5 µM (inactive)
GI50 (UACC-257): > 100 µM (inactive)
GI50 (SF-295): 62.4 µM (inactive)
GI50 (EKVX): > 100 µM (inactive)
GI50 (NCI-H460): 36.4 µM (inactive)
GI50 (MOLT-4): 29 µM (inactive)

CONC(C)=O
GI50 (PC-3): > 100 µM (inactive)
GI50 (OVCAR-8): > 100 µM (inactive)
GI50 (Malme-3M): > 100 µM (inactive)
GI50 (HL-60): > 100 µM (inactive)
GI50 (MDA-N): > 100 µM (inactive)
GI50 (SK-MEL-28): > 100 µM (inactive)
GI50 (Hs-578T): > 100 µM (inactive)
GI50 (HCC 2998): > 100 µM (inactive)
GI50 (SK-OV-3): > 100 µM (inactive)
GI50 (BT-549): > 100 µM (inactive)
GI50 (OVCAR-5): > 100 µM (inactive)
GI50 (NCI-H23): > 100 µM (inactive)
GI50 (SNB-75): > 100 µM (inactive)
GI50 (RPMI-8226): > 100 µM (inactive)
GI50 (UACC-257): > 100 µM (inactive)
GI50 (SF-295): > 100 µM (inactive)
GI50 (EKVX): > 100 µM (inactive)
GI50 (NCI-H460): > 100 µM (inactive)
GI50 (MOLT-4): > 100 µM (inactive)

CO/C=C(/C(=O)OC)c1ccccc1[C@@H]1CC1c1cccc(F)c1 (stereo partly drawn)
GI50 (PC-3): 29 µM (inactive)
GI50 (HOP-92): 23.3 µM (inactive)
GI50 (OVCAR-8): 33.5 µM (inactive)
GI50 (Malme-3M): 16 µM (inactive)
GI50 (HL-60): 18.4 µM (inactive)
GI50 (MDA-N): 22.1 µM (inactive)
GI50 (SK-MEL-28): 39.4 µM (inactive)
GI50 (Hs-578T): 41.1 µM (inactive)
GI50 (HCC 2998): 25 µM (inactive)
GI50 (SK-OV-3): 25.5 µM (inactive)
GI50 (BT-549): 25.4 µM (inactive)
GI50 (OVCAR-5): > 100 µM (inactive)
GI50 (NCI-H23): 24.5 µM (inactive)
GI50 (RPMI-8226): 19.5 µM (inactive)
GI50 (UACC-257): 19.9 µM (inactive)
GI50 (SF-295): 67 µM (inactive)
GI50 (EKVX): 30.5 µM (inactive)
GI50 (NCI-H460): 26.6 µM (inactive)
GI50 (MOLT-4): 29.2 µM (inactive)

O=C(O)CCCc1ccc2ccc3ccccc3c2c1
GI50 (PC-3): 34.8 µM (inactive)
GI50 (HOP-92): 72.6 µM (inactive)
GI50 (OVCAR-8): 71.9 µM (inactive)
GI50 (Malme-3M): 39.4 µM (inactive)
GI50 (MDA-N): > 100 µM (inactive)
GI50 (SK-MEL-28): 81.8 µM (inactive)
GI50 (Hs-578T): 38.8 µM (inactive)
GI50 (BT-549): 69 µM (inactive)
GI50 (OVCAR-5): 73.5 µM (inactive)
GI50 (NCI-H23): > 100 µM (inactive)
GI50 (SNB-75): 14 µM (inactive)
GI50 (RPMI-8226): 38.8 µM (inactive)
GI50 (UACC-257): 56.2 µM (inactive)
GI50 (SF-295): 21.8 µM (inactive)
GI50 (EKVX): > 100 µM (inactive)
GI50 (NCI-H460): 58.3 µM (inactive)
GI50 (MOLT-4): 65.5 µM (inactive)

COc1ccc(CC2NC(=O)C(NC(=O)c3c4nc5c(C(=O)NC6C(=O)NC(Cc7ccc(OC)cc7)C(=O)N7CCCC7C(=O)N(C)CC(=O)N(C)C(C(C)C)C(=O)OC6C)ccc(C)c5oc-4c(C)c(=O)c3N)C(C)OC(=O)C(C(C)C)N(C)C(=O)CN(C)C(=O)C3CCCN3C2=O)cc1 (stereo not drawn) (I: TY(Me)P[Sar][NMeV] / II: TY(Me)P[Sar][NMeV]; ester I:1-I:C, II:1-II:C; linker I:N-II:N via Actinocin(1to9); configuration not given here)
GI50 (PC-3): < 0.001 µM (active)
GI50 (OVCAR-8): < 0.001 µM (active)
GI50 (Malme-3M): < 0.001 µM (active)
GI50 (HL-60): < 0.001 µM (active)
GI50 (MDA-N): < 0.001 µM (active)
GI50 (SK-MEL-28): < 0.001 µM (active)
GI50 (Hs-578T): 0.022 µM (active)
GI50 (HCC 2998): 0.0012 µM (active)
GI50 (SK-OV-3): 0.0116 µM (active)
GI50 (BT-549): 0.01 µM (active)
GI50 (OVCAR-5): 0.00267 µM (active)
GI50 (NCI-H23): 0.00147 µM (active)
GI50 (SNB-75): 0.00109 µM (active)
GI50 (RPMI-8226): < 0.001 µM (active)
GI50 (UACC-257): < 0.001 µM (active)
GI50 (SF-295): 0.01 µM (active)
GI50 (EKVX): 0.164 µM (active)
GI50 (NCI-H460): < 0.001 µM (active)
GI50 (MOLT-4): < 0.001 µM (active)
